From article PMC9181188 (International Journal of Molecular Sciences, 2022)
≈ marks a conversion by molar mass, not a printed value. Read-outs that look alike come from different tables or passages of the source.

Assays:
S. aureus ATCC 6538 = assay: MIC, twofold microdilution, standard strain; assay type: cell-based; conditions: Staphylococcus aureus, ATCC6538; 18 h of treatment; read-out: MIC S. aureus ATCC 6538
[1] = test system: S. epidermidis KR 4047 825/19; assay: MIC, clinical S. epidermidis strain; assay type: cell-based; conditions: Staphylococcus epidermidis, KR4047825/19, quinolone-resistant, 18 h of treatment
[2] = target: T1, S. aureus topoisomerase IV (Staphylococcus aureus, UniProt P0C1S7+P0C1U9); assay: S. aureus topoisomerase IV decatenation assay; assay type: biochemical
T1 construct: purchased Inspiralis
Method: The assay was performed using S. aureus topoisomerase IV […] kit (Inspiralis). Kinetoplast DNA (kDNA) was the substrate for topoisomerase IV.

P. aeruginosa ATCC 27853 = assay: MIC, twofold microdilution, standard strain; assay type: cell-based; conditions: Pseudomonas aeruginosa, ATCC27853; 18 h of treatment; read-out: MIC P. aeruginosa ATCC 27853
M. tuberculosis H37Rv = assay: MABA (microplate Alamar blue assay) MIC; assay type: cell-based; conditions: Mycobacterium tuberculosis, 336 h, read-out: MIC M. tuberculosis H37Rv
S. aureus NCTC 4163 = assay: MIC, twofold microdilution, standard strain; assay type: cell-based; conditions: Staphylococcus aureus, NCTC4163; 18 h of treatment; read-out: MIC S. aureus NCTC 4163
SW480 cells = assay: MTT assay, SW480; assay type: cell-based, human; conditions: for IC50: Homo sapiens, SW480, 72 h, human primary colon cancer, 72 h, MTT, mean ± SD; for SI SW480: SI = IC50 for normal cell line (HaCaT)/IC50 cancer cell line
[3] = test system: S. epidermidis T 5501 851/19; assay: MIC, clinical S. epidermidis strain; assay type: cell-based; conditions: Staphylococcus epidermidis, T5501851/19, read-out: MIC T 5501 851/19, quinolone-susceptible, 18 h of treatment
[4] = test system: S. epidermidis KR 4313 834/19; assay: MIC, clinical S. epidermidis strain; assay type: cell-based; conditions: Staphylococcus epidermidis, KR4313834/19, quinolone-susceptible, 18 h of treatment
HaCaT cells = assay: MTT assay, HaCaT normal cells; assay type: cell-based; conditions: human immortal keratinocyte cell line, 72 h, mean ± SD
[5] = test system: S. epidermidis KR 4358/2 840/19; assay: MIC, clinical S. epidermidis strain; assay type: cell-based; conditions: Staphylococcus epidermidis, KR4358/2840/19; clinical S. epidermidis, quinolone-susceptible, 18 h of treatment; read-out: MIC KR 4358/2 840/19
[6] = test system: S. epidermidis ATCC 35984; assay: MIC, twofold microdilution, standard strain; assay type: cell-based; conditions: Staphylococcus epidermidis, ATCC35984; 18 h of treatment; read-out: MIC S. epidermidis ATCC 35984
[7] = test system: quinolone-susceptible clinical coagulase-negative staphylococci; assay: MIC, quinolone-susceptible clinical isolates as a group; assay type: cell-based; conditions: Staphylococcus epidermidis, 18 h; five quinolone-susceptible isolates; read-out: MIC against quinolone-susceptible clinical isolates
[8] = test system: S. epidermidis ATCC 12228; assay: MIC, twofold microdilution, standard strain; assay type: cell-based; conditions: Staphylococcus epidermidis, ATCC12228; 18 h of treatment; read-out: MIC S. epidermidis ATCC 12228
[9] = test system: M. tuberculosis Spec. 192 (Sensitive to Tuberculostatics); assay: MABA (microplate Alamar blue assay) MIC; assay type: cell-based; conditions: Mycobacterium tuberculosis, 336 h, read-out: MIC M. tuberculosis Spec. 192 (Sensitive to Tuberculostatics)
[10] = test system: S. epidermidis KR 4243 829/19; assay: MIC, clinical S. epidermidis strain; assay type: cell-based; conditions: Staphylococcus epidermidis, KR4243829/19, quinolone-susceptible, 18 h of treatment
S. aureus ATCC 29213 = assay: MIC, twofold microdilution, standard strain; assay type: cell-based; conditions: Staphylococcus aureus, ATCC29213; 18 h of treatment; read-out: MIC S. aureus ATCC 29213
SW620 cells = assay: MTT assay, SW620; assay type: cell-based, human; conditions: for IC50: human metastatic colon cancer, 72 h, MTT, mean ± SD; for SI SW620: SI = IC50 for normal cell line (HaCaT)/IC50 cancer cell line
M. tuberculosis strains = assay: MABA MIC, mycobacterial strains as a group; assay type: cell-based; conditions: Mycobacterium tuberculosis, read-out: MIC antimycobacterial (strain not specified)
[11] = test system: standard staphylococci (S. aureus, S. epidermidis); assay: MIC, standard Gram-positive strains as a group; assay type: cell-based; conditions: Staphylococcus aureus; range over standard Gram-positive strains; read-out: MIC against standard staphylococci
E. coli ATCC 25922 = assay: MIC, twofold microdilution, standard strain; assay type: cell-based, Escherichia coli; conditions: 18 h of treatment; for MIC: Escherichia coli, ATCC25922, read-out: MIC E. coli ATCC 25922
PC3 cells = assay: MTT assay, PC3; assay type: cell-based, human; conditions: for IC50: human metastatic prostate cancer, 72 h, MTT, mean ± SD; for SI PC3: SI = IC50 for normal cell line (HaCaT)/IC50 cancer cell line
[12] = test system: S. epidermidis T 5399 848/19; assay: MIC, clinical S. epidermidis strain; assay type: cell-based; conditions: Staphylococcus epidermidis, T5399848/19, quinolone-susceptible, 18 h of treatment
S. aureus DNA gyrase = S. aureus DNA gyrase (Staphylococcus aureus, UniProt P0A0K8+P20831); assay: biochemical
Method: The assay was performed using S. aureus DNA Gyrase Supercoiling kit (Inspiralis). […] Samples were vortexed, centrifuged, and 20 µL of the aqueous phase of each sample was loaded onto a 1% agarose gel and left for 30 min prior to electrophoresis to allow diffusion of salt. Electrophoresis was conducted in TAE buffer for 3 h at 50 V. Gels were stained with ethidium bromide and visualized under UV light in a transilluminator (ChemiDoc MP, Bio Rad, Warsaw, Poland).

S. aureus ATCC 25923 = assay: MIC, twofold microdilution, standard strain; assay type: cell-based; conditions: Staphylococcus aureus, ATCC25923; 18 h of treatment; read-out: MIC S. aureus ATCC 25923
[13] = test system: S. epidermidis T 5253 845/19; assay: MIC, clinical S. epidermidis strain; assay type: cell-based; conditions: Staphylococcus epidermidis, T5253845/19, quinolone-resistant, 18 h of treatment

T1 sequence (P0C1U9 whole entry): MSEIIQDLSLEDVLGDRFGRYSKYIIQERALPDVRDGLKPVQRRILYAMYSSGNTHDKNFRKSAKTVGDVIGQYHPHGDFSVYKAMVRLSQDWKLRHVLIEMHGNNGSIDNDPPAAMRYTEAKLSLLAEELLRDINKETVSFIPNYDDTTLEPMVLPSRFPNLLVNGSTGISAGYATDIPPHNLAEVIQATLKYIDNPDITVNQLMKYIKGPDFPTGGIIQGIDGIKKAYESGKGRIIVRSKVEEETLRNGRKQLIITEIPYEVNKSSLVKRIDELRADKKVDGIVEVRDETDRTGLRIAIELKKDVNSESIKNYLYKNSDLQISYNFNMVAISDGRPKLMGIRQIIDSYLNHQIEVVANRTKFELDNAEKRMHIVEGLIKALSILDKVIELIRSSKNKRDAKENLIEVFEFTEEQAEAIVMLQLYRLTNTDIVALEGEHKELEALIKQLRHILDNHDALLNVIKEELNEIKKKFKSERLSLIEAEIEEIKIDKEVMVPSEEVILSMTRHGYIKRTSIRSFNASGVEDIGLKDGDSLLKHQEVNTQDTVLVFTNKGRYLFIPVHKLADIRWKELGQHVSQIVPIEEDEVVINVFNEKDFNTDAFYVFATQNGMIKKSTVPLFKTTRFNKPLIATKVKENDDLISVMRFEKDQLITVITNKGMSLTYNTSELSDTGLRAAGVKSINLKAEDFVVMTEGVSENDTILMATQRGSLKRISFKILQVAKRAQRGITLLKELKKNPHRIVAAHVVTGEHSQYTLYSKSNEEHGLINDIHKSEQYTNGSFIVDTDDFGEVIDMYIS
T1 sequence (P0C1S7 whole entry): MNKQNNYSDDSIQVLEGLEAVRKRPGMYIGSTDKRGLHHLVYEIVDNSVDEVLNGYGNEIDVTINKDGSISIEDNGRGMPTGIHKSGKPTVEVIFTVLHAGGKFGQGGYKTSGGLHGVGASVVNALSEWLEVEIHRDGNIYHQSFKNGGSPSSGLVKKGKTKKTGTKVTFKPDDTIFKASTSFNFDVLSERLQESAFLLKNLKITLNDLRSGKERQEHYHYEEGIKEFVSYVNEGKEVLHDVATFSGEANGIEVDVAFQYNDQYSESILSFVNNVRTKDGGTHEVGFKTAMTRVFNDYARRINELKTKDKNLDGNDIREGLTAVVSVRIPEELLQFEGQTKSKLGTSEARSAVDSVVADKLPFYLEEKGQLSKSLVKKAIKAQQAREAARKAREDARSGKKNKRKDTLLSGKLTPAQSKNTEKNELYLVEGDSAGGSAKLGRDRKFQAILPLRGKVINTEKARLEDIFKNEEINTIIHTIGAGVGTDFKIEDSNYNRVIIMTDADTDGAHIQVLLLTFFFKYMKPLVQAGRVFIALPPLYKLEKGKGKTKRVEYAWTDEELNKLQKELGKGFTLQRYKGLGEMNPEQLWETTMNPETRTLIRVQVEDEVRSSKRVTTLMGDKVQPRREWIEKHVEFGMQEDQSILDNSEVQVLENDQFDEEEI
Sequence of S. aureus DNA gyrase (P20831 whole entry): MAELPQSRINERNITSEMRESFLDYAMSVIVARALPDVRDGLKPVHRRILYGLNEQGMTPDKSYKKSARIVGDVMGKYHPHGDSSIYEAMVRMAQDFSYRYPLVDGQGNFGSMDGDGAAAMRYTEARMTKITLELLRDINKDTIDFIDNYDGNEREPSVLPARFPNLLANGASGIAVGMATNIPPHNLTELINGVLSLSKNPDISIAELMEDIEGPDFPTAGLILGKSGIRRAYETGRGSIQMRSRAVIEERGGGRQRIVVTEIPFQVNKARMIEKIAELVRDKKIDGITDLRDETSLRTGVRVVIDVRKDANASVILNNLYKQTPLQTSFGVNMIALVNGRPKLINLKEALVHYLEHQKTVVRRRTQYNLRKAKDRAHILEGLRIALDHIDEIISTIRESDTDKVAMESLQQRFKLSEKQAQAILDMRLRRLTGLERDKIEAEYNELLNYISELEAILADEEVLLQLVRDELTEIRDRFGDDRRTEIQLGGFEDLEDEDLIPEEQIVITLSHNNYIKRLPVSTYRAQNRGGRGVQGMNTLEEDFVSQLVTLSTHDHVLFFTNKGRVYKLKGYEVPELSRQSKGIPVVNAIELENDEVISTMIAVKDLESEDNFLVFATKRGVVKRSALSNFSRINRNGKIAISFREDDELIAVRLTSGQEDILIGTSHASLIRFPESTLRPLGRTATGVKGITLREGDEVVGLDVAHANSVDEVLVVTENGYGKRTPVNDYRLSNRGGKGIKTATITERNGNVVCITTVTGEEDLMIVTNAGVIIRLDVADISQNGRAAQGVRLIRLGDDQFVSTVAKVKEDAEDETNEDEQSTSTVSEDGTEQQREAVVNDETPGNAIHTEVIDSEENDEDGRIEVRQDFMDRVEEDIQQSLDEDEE
Sequence of S. aureus DNA gyrase (P0A0K8 whole entry): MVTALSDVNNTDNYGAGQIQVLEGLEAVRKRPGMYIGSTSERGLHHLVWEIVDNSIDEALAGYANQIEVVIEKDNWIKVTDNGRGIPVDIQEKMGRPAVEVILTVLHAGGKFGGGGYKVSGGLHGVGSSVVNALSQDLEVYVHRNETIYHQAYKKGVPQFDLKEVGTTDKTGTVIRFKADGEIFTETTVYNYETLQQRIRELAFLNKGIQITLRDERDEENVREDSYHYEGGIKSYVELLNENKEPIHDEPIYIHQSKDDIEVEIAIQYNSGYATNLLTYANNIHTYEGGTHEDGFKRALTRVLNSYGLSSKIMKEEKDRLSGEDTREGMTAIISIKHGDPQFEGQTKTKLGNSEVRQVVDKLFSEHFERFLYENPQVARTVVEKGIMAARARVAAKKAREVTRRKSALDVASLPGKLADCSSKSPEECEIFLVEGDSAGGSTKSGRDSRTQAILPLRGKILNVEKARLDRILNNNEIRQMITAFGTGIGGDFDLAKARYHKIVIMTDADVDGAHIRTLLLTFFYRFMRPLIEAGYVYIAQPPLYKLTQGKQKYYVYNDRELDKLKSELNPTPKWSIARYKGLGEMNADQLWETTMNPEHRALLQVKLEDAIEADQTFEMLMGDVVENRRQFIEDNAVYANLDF

C/C=C/C(=O)N1CCCC2CN(c3c(F)cc4c(=O)c(C(=O)O)cn(C5CC5)c4c3OC)CC21 (stereo not drawn) [Compound 1m, 7-{1-(E)-But-2-enoyl-octahydro-pyrrolo[3,4-b]pyridin-6-yl}-1-cyclopropyl-6-fluoro-8-methoxy-4-oxo-1,4-dihydro-quinoline-3-carboxylic acid]
MIC (S. aureus ATCC 6538): 0.5 µg/mL (≈ 1.06 µM)
MIC [1]: 32 µg/mL (≈ 68.2 µM)
IC50 [2]: 130 µM
MIC (P. aeruginosa ATCC 27853): > 512 µg/mL
MIC (M. tuberculosis H37Rv): 64 µg/mL (≈ 136 µM)
MIC (S. aureus NCTC 4163): 0.5 µg/mL (≈ 1.06 µM)
IC50 (SW480 cells): 31.6 ± 4.7 µM
SI SW480 (SW480 cells): 2.0
MIC [3]: 1 µg/mL (≈ 2.13 µM)
MIC [4]: 1 µg/mL (≈ 2.13 µM)
IC50 (HaCaT cells): 64.1 ± 2.3 µM
MIC [5]: 1 µg/mL (≈ 2.13 µM)
MIC [6]: 0.5 µg/mL (≈ 1.06 µM)
MIC [7]: 0.5 to 1 µg/mL (≈ 1.06 to 2.13 µM)
MIC [8]: 1 µg/mL (≈ 2.13 µM)
MIC [9]: 64 µg/mL (≈ 136 µM)
MIC [10]: 0.5 µg/mL (≈ 1.06 µM)
MIC (S. aureus ATCC 29213): 0.5 µg/mL (≈ 1.06 µM)
IC50 (SW620 cells; Homo sapiens, SW-620, 72 h): 24.8 ± 3.2 µM
SI SW620 (SW620 cells): 2.6
MIC (M. tuberculosis strains): 64 µg/mL (≈ 136 µM)
MIC [11]: 0.5 to 2 µg/mL (≈ 1.06 to 4.26 µM)
MIC E. coli ATCC 25922 (E. coli ATCC 25922): 2 to 16 µg/mL
MIC (E. coli ATCC 25922): 16 µg/mL (≈ 34.1 µM)
IC50 (PC3 cells; Homo sapiens, PC-3, 72 h): 23.8 ± 3.4 µM
SI PC3 (PC3 cells): 2.7
MIC [12]: 1 µg/mL (≈ 2.13 µM)
IC50 (S. aureus DNA gyrase): > 136 µM
MIC (S. aureus ATCC 25923): 0.5 µg/mL (≈ 1.06 µM)
MIC [13]: 64 µg/mL (≈ 136 µM)

C/C=C/C=C/C(=O)N1CCCC2CN(c3c(F)cc4c(=O)c(C(=O)O)cn(C5CC5)c4c3OC)CC21 (stereo not drawn) [Compound 2m, 1-Cyclopropyl-6-fluoro-7-{1-(2E,4E)-hexa-2,4-dienoyl-octahydro-pyrrolo[3,4-b]pyridin-6-yl}-8-methoxy-4-oxo-1,4-dihydro-quinoline-3-carboxylic acid]
MIC (S. aureus ATCC 6538): 1 µg/mL (≈ 2.02 µM)
MIC [1]: 32 µg/mL (≈ 64.6 µM)
IC50 [2]: > 129 µM
MIC (P. aeruginosa ATCC 27853): > 512 µg/mL
MIC (M. tuberculosis H37Rv; 2 weeks of treatment): 32 µg/mL (≈ 64.6 µM)
MIC (S. aureus NCTC 4163): 1 µg/mL (≈ 2.02 µM)
IC50 (SW480 cells): 6.3 ± 1.2 µM
SI SW480 (SW480 cells): 15.7
MIC [3]: 2 µg/mL (≈ 4.04 µM)
MIC [4]: 1 µg/mL (≈ 2.02 µM)
IC50 (HaCaT cells): 99.1 ± 1.8 µM
MIC [5]: 1 µg/mL (≈ 2.02 µM)
MIC [6]: 1 µg/mL (≈ 2.02 µM)
MIC [7]: 0.5 to 1 µg/mL (≈ 1.01 to 2.02 µM)
MIC [8]: 2 µg/mL (≈ 4.04 µM)
MIC ([9]; 2 weeks of treatment): 32 µg/mL (≈ 64.6 µM)
MIC [10]: 1 µg/mL (≈ 2.02 µM)
MIC (S. aureus ATCC 29213): 1 µg/mL (≈ 2.02 µM)
IC50 (SW620 cells; Homo sapiens, SW-620, 72 h): < 5 µM
SI SW620 (SW620 cells): 25.4
IC50 (SW620 cells): 3.9 ± 1.1 µM
MIC [11]: 0.5 to 2 µg/mL (≈ 1.01 to 4.04 µM)
MIC (E. coli ATCC 25922): 64 µg/mL (≈ 129 µM)
IC50 (PC3 cells; Homo sapiens, PC-3, 72 h): < 5 µM
SI PC3 (PC3 cells): 36.7
IC50 (PC3 cells): 2.7 ± 1.1 µM
MIC [12]: 0.5 µg/mL (≈ 1.01 µM)
IC50 (S. aureus DNA gyrase): > 129 µM
MIC (S. aureus ATCC 25923): 1 µg/mL (≈ 2.02 µM)
MIC [13]: 32 µg/mL (≈ 64.6 µM)
